Test results published in US10913766B2, “Liver specific delivery-based entecavir prodrug, nucleoside cyclic phosphate compound, and application thereof” (ZHEJIANG PALO ALTO PHARMACEUTICALS, INC., priority 2017, dated 2021).

Assays:
[1] = set-up: species or system Male SD (Sprague-Dawley) rats; settings: rat, in vivo, po, 0.036 mmol/kg
Description: Male SD (Sprague-Dawley) rats, weighing 180 to 300 g, were provided by Shanghai Xipuer-Beikai Experimental Animal Co., Ltd. The male animals were acclimatized to the environment for more than 3 days, and fasted for 12 hours overnight before the experiment, but were allowed to drink water. […] Before administration, the animals were checked to determine whether their body weights met the experimental requirements. Twelve rats were selected for grouping, two rats in each group. The drug solutions were administered intragastrically to the rats in an amount of 0.036 mmol/kg. The rats were euthanized with carbon dioxide gas and samples were collected, at 0.5 h, 1 h, 3 h, 6 h, 12 h, and 24 h, respectively. […] The supernatant plasma was taken, to which 10% trichloroacetic acid (containing PMPA as an internal standard, at a concentration of 100 ng/mL) was immediately added as a precipitant at a volume 5 times that of the plasma, to obtain plasma sample solutions. […] Two ceramic beads were added to each of the homogenization tubes for homogenization to obtain tissue homogenate samples. 100 μL of each biological sample was taken, placed in a 1.5 mL test tube, and centrifuged for 5 min. 20 μL of the supernatant was taken and mixed uniformly with 180 μL of water and then analyzed by LC-MS/MS. LC-MS/MS-AJ (Triple Quad 5500, AB SCIEX) was used for analysis of the samples. Chromatographic Column: Acquity UPLC HSS T3 (2.1×50 mm, 1.8 μm); Column Temperature: 40° C.; Flow Rate: 0.5 mL/min. Mobile Phase A: 0.1% formic acid in water, Mobile Phase B: Acetonitrile Solution. The mass spectrometry was performed with an electrospray ionization source (Turbo Ionspray) as an ion source, in a positive ion mode, at a capillary voltage of 3.0 kV, at a temperature of 500° C., and at a desolvation gas flow of 1000 L/h. The scanning time, cone voltage, collision energy, and the ion reaction for quantitative analysis were shown in Table 6 below: The concentration of the metabolite from each of the compounds in the liver was plotted as a function of time on a bar chart.

[2] = In-vitro metabolism in human liver microsomes, release of ETVMP (Example 24); assay type: in vitro ADME; settings: result in words
Text: (§1) Human liver microsomes (HLM) were purchased from IVT (In Vitro Technologies) (Product No. X008070, Batch No. SSP). Rat liver microsomes (RLM) were purchased from BD with a batch number of 16298, and mice liver microsomes (MLM) were purchased from Research Institute for Liver Diseases (Shanghai) Co., Ltd. (RILD), with a batch number of BQNI.
(§2) The test compounds PA3001, PA3002, PA3003, and PA3004 were synthesized by Zhejiang Palo Alto Pharmaceuticals, Inc., and dissolved in methanol (from Sinopharm Chemical Reagent Co., Ltd.) to prepare storage solutions at a concentration of 25 mM.
(§3) The enzymatic reaction was carried out in a 100 mM KH2PO4 buffer solution (pH 7.4), with a test compound at a concentration of 25 μM, human liver microsomes at a concentration of 2 mg/ml, and NADPH at a concentration of 2 mM. The reaction was initiated by NADPH which was added last. After the reaction was carried out for 5 min in a constant-temperature shaking water bath kettle, methanol at a volume of 1.5 times that of the reaction mixture was added immediately to terminate the reaction.
(§4) Each sample was centrifuged at a maximum speed of 13,600 rpm for 20 minutes using an Eppendorf tabletop centrifuge. The supernatant was taken, and was blow-dried by a nitrogen blower and then re-dissolved in mobile phase A (0.1% formic acid (v/v) in water).
(§5) • Analysis Column: Waters, Acquity UPLC HSS T3 Column • Flow Rate: 0.5 ml/min • Column Temperature: 40 degrees Celsius • III. Mass Spectrometry Condition • Ion Source: Electrospray Ionization Source • Ion Mode: Positive Ion Mode • Capillary Voltage: 3.0 kV • Temperature: 500° C. • Desolvation Gas Flow Rate: […] • Scan Time: 0.025 s • Cone Voltage: 40 V • Collision Energy: 18 eV • Q1 (m/z): 358 • Q3 (m/z): 152

[3] = In-vitro metabolism in mice liver microsomes, release of ETVMP (Example 24); assay type: in vitro ADME, mouse; settings: result in words
Text: as §1, §2, §3, §4, §5

[4] = In-vitro metabolism in rat liver microsomes, release of ETVMP (Example 24); assay type: in vitro ADME; settings: result in words
Text: as §1, §2, §3, §4, §5

[5] = tested on: hepatitis B virus (HBV); settings: read-out: EC50, antiviral activity in vitro; cited from earlier work
[6] = tested on: lamivudine-resistant virus strains; settings: read-out: EC50, inhibitory activity against lamivudine-resistant virus strains; cited from earlier work

| Compound | AUC0-24 h of ETVMP in Liver [1] | AUC0-24 h of ETVMP in Plasma [1] | Activated in vitro into monophosphate metabolite ETVMP by human liver microsomes [2] | AUC0-24 h of ETVMP in Brain Tissue [1] | Activated in vitro into monophosphate metabolite ETVMP by mouse liver microsomes [3] | Activated in vitro into monophosphate metabolite ETVMP by rat liver microsomes [4] | EC50 [5] | EC50 [6] | Efficiency of activation by human liver microsomes into ETVMP compared with comparative compound PA3001 [2] | Rank of conversion rate among tested compounds, human liver microsomes ([2]; Table 3) | Rank of conversion rate among tested compounds, mouse liver microsomes ([3]; Table 3) | Rank of conversion rate among tested compounds, rat liver microsomes ([4]; Table 3) |
| --- | --- | --- | --- | --- | --- | --- | --- | --- | --- | --- | --- | --- |
| C=C1[C@H](COP2(=O)OCC[C@H](c3cc(Cl)ccc3Cl)O2)[C@@H](O)C[C@@H]1n1cnc2c(=O)[nH]c(N)nc21 (stereo partly drawn) [PA3017] | 9.0 nmol·h/g | 0.08 nmol·h/g |  |  |  |  |  |  |  |  |  |  |
| C=C1[C@H](COP2(=O)OCC[C@H](c3cccc(Cl)c3)O2)[C@@H](O)C[C@@H]1n1cnc2c(=O)[nH]c(N)nc21 (stereo partly drawn) [PA3001] | 16.2 nmol·h/g | 0.17 nmol·h/g | activated | 0.2 nmol·h/g | activated | activated |  |  |  |  |  |  |
| C=C1[C@@H](CO)[C@@H](O)C[C@@H]1n1cnc2c(=O)[nH]c(N)nc21 [ETV, 2-amino-9-[(1S,3S,4S)-4-hydroxy-3-hydroxymethyl-2-methylenecyclopentyl]-1,9-dihydro-6H-purine-6-one, reference compound] | 16.6 nmol·h/g | 0.55 nmol·h/g |  |  |  |  | 4 nM | 10 to 59 nM |  |  |  |  |
| C=C1[C@H](COP2(=O)OCC[C@H](c3ccncc3)O2)[C@@H](O)C[C@@H]1n1cnc2c(=O)[nH]c(N)nc21 (stereo partly drawn) [PA3003] | 18.9 nmol·h/g | 0.19 nmol·h/g | activated | 1.1 nmol·h/g | activated | activated |  |  |  |  |  |  |
| C=C1[C@H](COP2(=O)OCC[C@H](c3cc(Cl)ccc3F)O2)[C@@H](O)C[C@@H]1n1cnc2c(=O)[nH]c(N)nc21 (stereo partly drawn) [PA3004] | 11.6 nmol·h/g | 0.09 nmol·h/g | activated |  | activated | activated |  |  | significantly greater | highest rate | highest rate | highest rate |
| C=C1[C@H](COP2(=O)OCC[C@H](c3cc(F)cc(Cl)c3)O2)[C@@H](O)C[C@@H]1n1cnc2c(=O)[nH]c(N)nc21 (stereo partly drawn) [PA3002] | 8.1 nmol·h/g | 0.03 nmol·h/g |  |  |  |  |  |  | significantly greater |  |  |  |
